From patent publication US7902327B2, “Dendrimeric peptides, pharmaceutical compositions and methods of using the same” (New York University School of Medicine, priority 2007, dated 2011)
Converted amounts (≈) assume the structure as drawn. Where a SMILES comes first, the peptide text is derived from it. Where no end group is shown, it is not given here. Side-chain parts run from the residue outwards. [ ]: non-standard residue; d: D form. The star is where a group is joined. Lys(α,ε-(ArgTrp)2) = N=C(N)NCCC[C@H](N)C(=O)N[C@@H](Cc1c[nH]c2ccccc12)C(=O)NCCCC[C@H](NC(=O)[C@H](Cc1c[nH]c2ccccc12)NC(=O)[C@@H](N)CCCNC(=N)N)C(=O)*; NHBn = c1ccc(CN*)cc1; OBn = c1ccc(CO*)cc1; X1 = CCCCCCCCCN*; βAla = NCCC(=O)O

Legend:
[1] = test system: ampicillin- and streptomycin-resistant E. coli (D31); conditions: salt not stated
[2] = test system: E. coli
[3] = test system: multi-drug resistant strain S. aureus; conditions: salt not stated
[4] = test system: B. Subtilis (ATCC 6633); conditions: ATCC 6633
[5] = test system: B. anthracis (32F2 Sterne)
[6] = test system: Acinetobacter. baumannii (ATCC BAA-747)
[7] = test system: E. coli RP437 biofilms; assay: biofilm assay on stainless steel coupons with LIVE/DEAD staining; type: cell-based; conditions: for Biofilm coefficients: Dead cells / Biofilm coefficients: Live cells / Biofilm coefficients: Total biofilms: 24 hours
Protocol: The stainless steel (S.S.) coupons were polished using a fine 3M SandBlaster sandpaper, then autoclaved for sterilization. […] For all the treatments, duplicate coupons were tested. To analyze the E. coli biofilms using fluorescence microscopy, the biofilms were stained with […] bacterial viability kit (Cat# L7012, Invitrogen Corporation, California). Each S.S. coupon was washed gently by dipping vertically in 0.85% NaCl buffer three times (change to fresh buffer after each dipping). Then, they were soaked in 1 mL of 0.85% NaCl buffer containing 3 μl of staining component A and B (1:4) in the dark for 15 mins. Images were taken by AXIO Imager.M1 (Carl Zeiss, German). Five images were taken for each sample. Data were obtained and are presented in Table 3, below, as well as in FIG. 5.

Molecule | MIC50 E. coli [2] [µg/mL] | MIC50 S. aureus [3] [µg/mL] | MIC50 A. baumannii [6] [µg/mL] | also measured
N=C(N)NCCC[C@H](N)C(=O)N[C@@H](Cc1c[nH]c2ccccc12)C(=O)NCCCC[C@H](NC(=O)[C@H](Cc1c[nH]c2ccccc12)NC(=O)[C@@H](N)CCCNC(=N)N)C(=O)NCCCC[C@H](NC(=O)[C@H](CCCCNC(=O)[C@H](Cc1c[nH]c2ccccc12)NC(=O)[C@@H](N)CCCNC(=N)N)NC(=O)[C@H](Cc1c[nH]c2ccccc12)NC(=O)[C@@H](N)CCCNC(=N)N)C(=O)NCCC(=O)NCc1ccccc1 [(RW)4D-Benzyl amine] (H-RWK([Trp-Arg])K(Lys(α,ε-(ArgTrp)2))[βAla]-NHBn) | 12.8 (≈ 6.62 µM) | 37.8 | 121 (≈ 62.6 µM) | MIC50 E. coli D31 [1]: 21.3 µg/mL; MIC50 B. subtilis [4]: 5.0 µg/mL (≈ 2.59 µM); MIC50 B. anthracis [5]: 34.8 µg/mL (≈ 18 µM)
N=C(N)NCCC[C@H](N)C(=O)N[C@@H](Cc1c[nH]c2ccccc12)C(=O)NCCCC[C@H](NC(=O)[C@H](Cc1c[nH]c2ccccc12)NC(=O)[C@@H](N)CCCNC(=N)N)C(=O)NCCCC[C@H](NC(=O)[C@H](CCCCNC(=O)[C@H](Cc1c[nH]c2ccccc12)NC(=O)[C@@H](N)CCCNC(=N)N)NC(=O)[C@H](Cc1c[nH]c2ccccc12)NC(=O)[C@@H](N)CCCNC(=N)N)C(=O)NCCC(=O)OCc1ccccc1 [(RW)4D-Benzyl ester] (H-RWK([Trp-Arg])K(Lys(α,ε-(ArgTrp)2))[βAla]-OBn) | 14.3 (≈ 7.4 µM) | 19.6 | 78.7 (≈ 40.7 µM) | MIC50 E. coli D31 [1]: 29.7 µg/mL; MIC50 B. subtilis [4]: 6.8 µg/mL (≈ 3.52 µM); MIC50 B. anthracis [5]: 34.2 µg/mL (≈ 17.7 µM)
CCCCCCCCCNC(=O)CCNC(=O)[C@H](CCCCNC(=O)[C@H](CCCCNC(=O)[C@H](Cc1c[nH]c2ccccc12)NC(=O)[C@@H](N)CCCNC(=N)N)NC(=O)[C@H](Cc1c[nH]c2ccccc12)NC(=O)[C@@H](N)CCCNC(=N)N)NC(=O)[C@H](CCCCNC(=O)[C@H](Cc1c[nH]c2ccccc12)NC(=O)[C@@H](N)CCCNC(=N)N)NC(=O)[C@H](Cc1c[nH]c2ccccc12)NC(=O)[C@@H](N)CCCNC(=N)N [(RW)4D-Nonylamine] (H-RWK([Trp-Arg])K(Lys(α,ε-(ArgTrp)2))[βAla]-X1) | 15.8 (≈ 8.03 µM) | 21.6 | 75.2 (≈ 38.2 µM) | MIC50 E. coli D31 [1]: 26.7 µg/mL; MIC50 B. subtilis [4]: 6.5 µg/mL (≈ 3.3 µM); MIC50 B. anthracis [5]: 31.8 µg/mL (≈ 16.2 µM)
NC(=O)CCNC(=O)[C@H](CCCCNC(=O)[C@H](CCCCNC(=O)[C@H](Cc1c[nH]c2ccccc12)NC(=O)[C@@H](N)Cc1c[nH]cn1)NC(=O)[C@H](Cc1c[nH]c2ccccc12)NC(=O)[C@@H](N)Cc1c[nH]cn1)NC(=O)[C@H](CCCCNC(=O)[C@H](Cc1c[nH]c2ccccc12)NC(=O)[C@@H](N)Cc1c[nH]cn1)NC(=O)[C@H](Cc1c[nH]c2ccccc12)NC(=O)[C@@H](N)Cc1c[nH]cn1 [Den(HW)4D] | 30.6 (≈ 17.3 µM) |  | 82.7 (≈ 46.8 µM) | 
NCCCC[C@H](N)C(=O)N[C@@H](Cc1ccccc1)C(=O)NCCCC[C@H](NC(=O)[C@H](Cc1ccccc1)NC(=O)[C@@H](N)CCCCN)C(=O)NCCCC[C@H](NC(=O)[C@H](CCCCNC(=O)[C@H](Cc1ccccc1)NC(=O)[C@@H](N)CCCCN)NC(=O)[C@H](Cc1ccccc1)NC(=O)[C@@H](N)CCCCN)C(=O)NCCC(N)=O [Den(KF)4D] | 77 (≈ 48.9 µM) | 145 | 175 (≈ 111 µM) | 
NCCCC[C@H](N)C(=O)N[C@@H](Cc1c[nH]c2ccccc12)C(=O)NCCCC[C@H](NC(=O)[C@H](Cc1c[nH]c2ccccc12)NC(=O)[C@@H](N)CCCCN)C(=O)NCCCC[C@H](NC(=O)[C@H](CCCCNC(=O)[C@H](Cc1c[nH]c2ccccc12)NC(=O)[C@@H](N)CCCCN)NC(=O)[C@H](Cc1c[nH]c2ccccc12)NC(=O)[C@@H](N)CCCCN)C(=O)NCCC(N)=O [Den(KW)4D] | 30.6 (≈ 17.7 µM) | 23.3 | 52 (≈ 30.1 µM) | 
NCCCC[C@H](N)C(=O)N[C@@H](Cc1ccc(O)cc1)C(=O)NCCCC[C@H](NC(=O)[C@H](Cc1ccc(O)cc1)NC(=O)[C@@H](N)CCCCN)C(=O)NCCCC[C@H](NC(=O)[C@H](CCCCNC(=O)[C@H](Cc1ccc(O)cc1)NC(=O)[C@@H](N)CCCCN)NC(=O)[C@H](Cc1ccc(O)cc1)NC(=O)[C@@H](N)CCCCN)C(=O)NCCC(N)=O [Den(KY)4D] | 84.4 (≈ 51.5 µM) | 240 | 360 (≈ 220 µM) | 
N=C(N)NCCC[C@H](N)C(=O)N[C@@H](Cc1ccc2ccccc2c1)C(=O)NCCCC[C@H](NC(=O)[C@H](Cc1ccc2ccccc2c1)NC(=O)[C@@H](N)CCCNC(=N)N)C(=O)NCCCC[C@H](NC(=O)[C@H](CCCCNC(=O)[C@H](Cc1ccc2ccccc2c1)NC(=O)[C@@H](N)CCCNC(=N)N)NC(=O)[C@H](Cc1ccc2ccccc2c1)NC(=O)[C@@H](N)CCCNC(=N)N)C(=O)NCCC(N)=O [Den(R-2Nal)4D] | 21.5 (≈ 11.4 µM) | 36.0 | 51.3 (≈ 27.2 µM) | 
N=C(N)NCCC[C@H](N)C(=O)N[C@@H](Cc1ccccc1)C(=O)NCCCC[C@H](NC(=O)[C@H](Cc1ccccc1)NC(=O)[C@@H](N)CCCNC(=N)N)C(=O)NCCCC[C@H](NC(=O)[C@H](CCCCNC(=O)[C@H](Cc1ccccc1)NC(=O)[C@@H](N)CCCNC(=N)N)NC(=O)[C@H](Cc1ccccc1)NC(=O)[C@@H](N)CCCNC(=N)N)C(=O)NCCC(N)=O [Den(RF)4D] | 30 (≈ 17.8 µM) | 180 | 160 (≈ 94.9 µM) | 
N=C(N)NCCC[C@H](N)C(=O)NC(Cc1c[nH]c2ccc(F)cc12)C(=O)NCCCC[C@H](NC(=O)C(Cc1c[nH]c2ccc(F)cc12)NC(=O)[C@@H](N)CCCNC(=N)N)C(=O)NCCCC[C@H](NC(=O)[C@H](CCCCNC(=O)C(Cc1c[nH]c2ccc(F)cc12)NC(=O)[C@@H](N)CCCNC(=N)N)NC(=O)C(Cc1c[nH]c2ccc(F)cc12)NC(=O)[C@@H](N)CCCNC(=N)N)C(=O)NCCC(N)=O (stereo partly shown) [Den(RW*)4D] | 9.3 (≈ 4.86 µM) | 13 | 35 (≈ 18.3 µM) | 
N=C(N)NCCC[C@H](N)C(=O)N[C@@H](Cc1ccc(O)cc1)C(=O)NCCCC[C@H](NC(=O)[C@H](Cc1ccc(O)cc1)NC(=O)[C@@H](N)CCCNC(=N)N)C(=O)NCCCC[C@H](NC(=O)[C@H](CCCCNC(=O)[C@H](Cc1ccc(O)cc1)NC(=O)[C@@H](N)CCCNC(=N)N)NC(=O)[C@H](Cc1ccc(O)cc1)NC(=O)[C@@H](N)CCCNC(=N)N)C(=O)NCCC(N)=O [Den(RY)4D] | 12.6 (≈ 7.2 µM) | 45.7 | 193 (≈ 110 µM) | 
RWRWRW-NH2 (C-terminus assumed) [Hexamer, reference compound] |  |  |  | Total biofilm formation compared with blank control (ANOVA) ([7]; 25 μg/mL): not significant; Biofilm coefficients: Dead cells ([7]; 25 μg/mL): 12.29% ± 2.00%; Biofilm coefficients: Live cells ([7]; 25 μg/mL): 5.18% ± 1.57%; Biofilm coefficients: Total biofilms ([7]; 25 μg/mL): 17.49% ± 2.20%; Total biofilm formation compared with blank control (ANOVA) ([7]; 50 μg/mL): significantly reduced; Biofilm coefficients: Dead cells ([7]; 50 μg/mL): 12.22% ± 2.02%; Biofilm coefficients: Live cells ([7]; 50 μg/mL): 4.25% ± 1.55%; Biofilm coefficients: Total biofilms ([7]; 50 μg/mL): 16.68% ± 2.11%
